{"source": "patent US20210386792A1", "about": "“A METHOD FOR INCREASING POPULATION OF SPERMATOGONIAL STEM CELLS” (priority 2018, published 2021)", "key": {"[1]": {"tested_on": "DS-iPS EC", "experiment": "GDNF ELISA in conditioned media from Down syndrome iPS-derived ECs", "assay_type": "cell-based, human", "settings": "2 ng/ml FGF-2", "method": "Testis, lung, or liver ECs were plated (10,000 cells ml^−1) on 12 well dishes coated with 0.1% gelatin and cultured for 24 hours. Conditioned media was harvested at 24 and 48 hours after FGF-2 (2 ng ml^−1, 20 ng ml^−1 and 50 ng ml^−1) treatment and analyzed by ELISA for GDNF (Promega GDNF Emax immunoassay system, #G7621) following the manufacturer's instruction. Statistics was analyzed using Graph Pad Prism. For quantification of Gdnf mRNA, total RNA was isolated from the cells using Direct-zol RNA MiniPrep (Zymo Research) and reverse transcribed using High Capacity cDNA Reverse Transcription Kit (Appliedbiosystems), according to the manufacturer's instructions. All gene expression levels were normalized to GAPDH mRNA levels.\nTo generate iPSC lines, either human fibroblasts/stromal cells were transduced with pMXs-based retroviral supernatant with human OCT4, SOX2, KLF4, or MYC as described^30, or mononuclear cells were infected with pHage2-CMV-RTTA-W and pHage-Tet-hSTEMMCA-loxP virus as described^31. All cells were culture on 0.1% gelatin-coated dishes in human endothelial cell medium (Lonza; EGM®-MV Bulletkit) with 50 ng ml^−1 additional VEGF. 500,000 disaggregated single embryonic bodies from human iPSCs were cultured for 48 hours. Non-adherent cells were gently removed and adherent cells were cultured for 1-2 passages. […]"}, "[2]": {"tested_on": "EGR-1", "experiment": "Western blot of EGR-1 expression in TECs", "assay_type": "cell-based, mouse", "settings": "TEC", "excerpt": "FIG. 5. GDNF expression in TECs is regulated by CaN-NFAT signaling. a. Immunouorescence images of testis sections immunostained with the stem cell markers DDX4 and Oct4 and DAPI to stain DNA. Testes were harvested from 1-week-old or 4-week-old Euploid or Ts65Dn mice. Quantication of DDX4+ and Oct4+ cells relative to DAPI per high-powered eld (HPF) is shown on the right, ***P<0.0001. Bar=50 μm. Two-way ANOVA test. b. […] Values are mean±s.e.m. n=4. c. Quantication of GDNF levels by ELISA in conditioned media from murine TECs, LuEC and LiEC after 2 ngml-1 FGF-2 treatment in the presence or absence of CsA. Values are mean±s.e.m., n=4. d. H&E-stained cross-sections from testes of age-matched Euploid, Ts65Dn or Ts65Dn mice 5 weeks after implantation with GFP+ TECs isolated from syngeneic wild-type mice (Ts65Dn+GFP+ TECs). Red dotted line encircles mature sperm (yellow arrow) in the lumen of the seminiferous tubules. Immunouorescence images with GFP and DAPI to stain DNA of testis sections from Ts65Dn+GFP+TECs mice. e. Western blot analysis of EGR-1 protein expression in TECs and LuECs untreated or after FGF-2 treatment, expression of constitutively active NFATc1 (caNFATc1) or an empty vector control. Actin was probed as a loading control. f. Quantication of nuclear translocation of EGR1 and NFATc1 in TECs after treatment with conditioned media (CM), 2 ng ml-1 FGF-2±CsA. Values are mean±s.e.m. g. […]"}}}
{"substance": "fibroblast growth factor-2 [FGF-2]", "values": [{"measurement": "GDNF production after FGF2 treatment", "setting": "[1]", "value": "relatively modest induction of GDNF"}, {"measurement": "EGR-1 expression after FGF-2 treatment", "setting": "[2]", "value": "increased EGR-1 expression"}]}
